Measurements taken from paper PMC9120017, “Inhibition mechanism of the chloride channel TMEM16A by the pore blocker 1PBC” (Nature Communications, 2022).
Read-outs that look alike come from different tables or passages of the source.

Target: T1, mouse TMEM16A mutant I512A (Mus musculus, UniProt Q8BHY3, I512A)
T1 construct: expressed in transfected cells; host or cells: HEK293T
T1 sequence (Q8BHY3 1-960 I512A): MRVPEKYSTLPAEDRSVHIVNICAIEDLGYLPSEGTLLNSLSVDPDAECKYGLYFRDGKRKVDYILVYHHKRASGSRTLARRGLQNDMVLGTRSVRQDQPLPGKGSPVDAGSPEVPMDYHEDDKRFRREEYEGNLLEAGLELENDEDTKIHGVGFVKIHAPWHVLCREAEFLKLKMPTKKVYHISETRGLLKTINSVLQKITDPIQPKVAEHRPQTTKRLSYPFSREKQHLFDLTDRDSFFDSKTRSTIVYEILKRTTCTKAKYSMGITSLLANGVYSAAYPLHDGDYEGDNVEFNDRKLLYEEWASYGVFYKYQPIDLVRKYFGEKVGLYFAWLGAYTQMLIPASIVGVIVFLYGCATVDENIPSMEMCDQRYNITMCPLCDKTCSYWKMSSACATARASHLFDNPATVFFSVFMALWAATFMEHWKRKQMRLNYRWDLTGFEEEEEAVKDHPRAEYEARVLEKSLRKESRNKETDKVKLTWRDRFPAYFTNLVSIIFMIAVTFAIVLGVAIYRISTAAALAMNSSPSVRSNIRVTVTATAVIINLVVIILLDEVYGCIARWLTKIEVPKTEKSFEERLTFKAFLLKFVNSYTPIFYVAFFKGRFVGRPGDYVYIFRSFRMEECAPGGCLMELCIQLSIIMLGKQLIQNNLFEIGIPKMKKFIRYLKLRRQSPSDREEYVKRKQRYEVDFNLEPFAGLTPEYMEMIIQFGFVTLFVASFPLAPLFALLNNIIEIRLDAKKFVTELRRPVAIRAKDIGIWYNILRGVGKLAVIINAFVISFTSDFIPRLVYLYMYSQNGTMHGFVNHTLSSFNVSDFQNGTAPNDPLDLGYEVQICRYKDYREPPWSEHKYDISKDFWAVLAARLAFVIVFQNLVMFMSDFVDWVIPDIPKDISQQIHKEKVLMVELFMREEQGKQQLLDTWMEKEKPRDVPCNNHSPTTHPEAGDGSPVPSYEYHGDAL
Assay: Inside-out patch recording of 1PBC block, mutant I512A
Assay type: cell-based
Conditions: for remaining activity at 30 µM: 1PBC 30; for remaining activity at 30 µM / remaining activity at 100 µM: read-out: fraction of unblocked current; for remaining activity at 100 µM: 1PBC 100
Procedure: HEK293T cells (ATCC CRL-1573) were maintained in Dulbecco’s modified Eagle’s medium (DMEM; Sigma-Aldrich) supplemented with 10 U ml^−1 penicillin, 0.1 mg ml^−1 streptomycin (Sigma-Aldrich), 2 mM L-glutamine (Sigma-Aldrich), and 10% FBS (Sigma-Aldrich) in a humidified atmosphere containing 5% CO2 at 37 °C. HEK293S GnTI^− cells (ATCC CRL-3022) were maintained in HyClone HyCell TransFx-H medium (GE Healthcare) supplemented with 10 U ml^−1 penicillin, 0.1 mg ml^−1 streptomycin, 4 mM L-glutamine, 0.15% poloxamer 188 (Sigma-Aldrich), and 1% FBS in an atmosphere containing 5% CO2 at 185 rpm at 37 °C. The ac splice variant of mouse TMEM16A (UniProt ID: Q8BHY3), mouse TMEM16B (UniProt ID: Q8CFW1), or mouse TMEM16F (UniProt ID: Q6P9J9) bearing a 3C cleavage site, a Venus YFP, a Myc tag, and a Streptavidin-binding peptide (SBP) downstream of the open reading frame in a modified pcDNA3.1 vector (Invitrogen) were used as described previously[21],[31]. Mutations were introduced using a modified QuikChange method[58] and were verified by sequencing.
HEK293T cells were transfected with 3–4 μg DNA per 6 cm Petri dish using the calcium phosphate co-precipitation method and were used within 24–96 h after transfection. Recordings were performed on inside-out patches excised from HEK293T cells expressing the construct of interest. Patch pipettes were pulled from borosilicate glass capillaries (O.D. 1.5 mm, I.D. 0.86 mm, Sutter Instrument) and were fire-polished with a microforge (Narishige) before use. Pipette resistance was typically 3–8 MΩ when filled with the recording solutions detailed below. Seal resistance was typically 4 GΩ or higher. Voltage-clamp recordings were made using Axopatch 200B, Digidata 1550, and Clampex 10.7 (Molecular Devices). Analog signals were filtered with the in-built 4-pole Bessel filter at 10 kHz and were digitized at 20 kHz. Solution exchange was achieved using a gravity-fed system through a theta glass pipette mounted on an ultra-fast piezo-driven stepper (Siskiyou). […] All recordings were performed at 20 °C.
A symmetrical ionic condition was used throughout. Stock solution with Ca^2+-EGTA contained 150 mM NaCl, 5.99 mM Ca(OH)2, 5 mM EGTA, and 10 mM HEPES at pH 7.40. Stock solution with EGTA contained 150 mM NaCl, 5 mM EGTA, and 10 mM HEPES at pH 7.40. Free Ca^2+ concentrations were adjusted by mixing the stock solutions at the required ratios calculated using the WEBMAXC program (http://web.stanford.edu/~cpatton/webmaxcS.htm). Patch pipettes were filled with the stock solution with Ca^2+-EGTA, which has a free Ca^2+ concentration of 1 mM. 1PBC (ChemBridge) stock was reconstituted in anhydrous DMSO (Sigma-Aldrich) at 100 mM and stored at −20 °C. Working solutions with 1PBC were prepared by serial dilution. Unless otherwise stated, experiments were performed at a saturating Ca^2+ concentration as shown in Supplementary Table 1 and the primary data were corrected for current rundown as described previously[21],[25].
Concentration-response relations, obtained from the ratio of the I-V plots before and after the application of the blocker, were fitted to the Hill equation,1 I/Imax=1/1+IC50/[blocker]^h where I/Imax is the normalized current responses, IC50 defines the concentration at which inhibition is at its half-maximum, and h is the Hill coefficient.

remaining activity at 30 µM (-60 mV): 62.3%
remaining activity at 30 µM (-80 mV): 65.6%
remaining activity at 30 µM (-100 mV): 68.2%
remaining activity at 30 µM (-120 mV): 70.8%
remaining activity at 30 µM (-140 mV): 72%
remaining activity at 100 µM (0 mV): 23.3%
remaining activity at 100 µM (20 mV): 19.1%
remaining activity at 100 µM (40 mV): 18.1%
remaining activity at 100 µM (60 mV): 15.6%
remaining activity at 100 µM (80 mV): 14%
remaining activity at 100 µM (100 mV): 13.1%
remaining activity at 100 µM (120 mV): 12.2%
remaining activity at 100 µM (140 mV): 12.1%
remaining activity at 100 µM (-20 mV): 27.5%
remaining activity at 100 µM (-40 mV): 29.4%
remaining activity at 100 µM (-60 mV): 32.8%
remaining activity at 100 µM (-80 mV): 36%
remaining activity at 100 µM (-100 mV): 39.7%
remaining activity at 100 µM (-120 mV): 42.4%
remaining activity at 100 µM (-140 mV): 45.3%
IC50 (20 mV, 2 µM Ca2+): 25.5 µM
IC50 (40 mV, 2 µM Ca2+): 21.8 µM
IC50 (60 mV, 2 µM Ca2+): 19 µM
log-fold IC50 (change of mutant vs WT) (80 mV): 0.8662
IC50 (80 mV, 2 µM Ca2+): 17 µM
IC50 (100 mV, 2 µM Ca2+): 15.9 µM
IC50 (120 mV, 2 µM Ca2+): 15.8 µM
IC50 (140 mV, 2 µM Ca2+): 16.6 µM
IC50 (-20 mV, 2 µM Ca2+): 37.1 µM
IC50 (-40 mV, 2 µM Ca2+): 42.9 µM
IC50 (-60 mV, 2 µM Ca2+): 50.1 µM
IC50 (-80 mV, 2 µM Ca2+): 57.9 µM
IC50 (-100 mV, 2 µM Ca2+): 66.1 µM
IC50 (-120 mV, 2 µM Ca2+): 73.6 µM
IC50 (-140 mV, 2 µM Ca2+): 80.9 µM
IC50 (I512A, V 0 mV): 30.7 µM
IC50 (I512A, V 20 mV): 25.5 µM
IC50 (I512A, V 40 mV): 21.8 µM
IC50 (I512A, V 60 mV): 19 µM
IC50 (I512A, V 80 mV): 17 µM
IC50 (I512A, V 100 mV): 15.9 µM
IC50 (I512A, V 120 mV): 15.8 µM
IC50 (I512A, V 140 mV): 16.6 µM
IC50 (I512A, V -20 mV): 37.1 µM
IC50 (I512A, V -40 mV): 42.9 µM
IC50 (I512A, V -60 mV): 50.1 µM
IC50 (I512A, V -80 mV): 57.9 µM
IC50 (I512A, V -100 mV): 66.1 µM
IC50 (I512A, V -120 mV): 73.6 µM
IC50 (I512A, V -140 mV): 80.9 µM
SMILES: N#Cc1c(C(F)(F)F)cc(O)n2c1nc1ccccc12 [1PBC]
